Test results from patent US20040259948A1, “Reciprocal regulation of inflammation and lipid metabolism by liver X receptors” (priority 2003, published 2004).

Target: T1, LXRβ/RXRα (Homo sapiens, UniProt P55055)
T1 construct: expressed in transfected cells; host or cells: RAW 264.7
T1 sequence (P55055 1-460): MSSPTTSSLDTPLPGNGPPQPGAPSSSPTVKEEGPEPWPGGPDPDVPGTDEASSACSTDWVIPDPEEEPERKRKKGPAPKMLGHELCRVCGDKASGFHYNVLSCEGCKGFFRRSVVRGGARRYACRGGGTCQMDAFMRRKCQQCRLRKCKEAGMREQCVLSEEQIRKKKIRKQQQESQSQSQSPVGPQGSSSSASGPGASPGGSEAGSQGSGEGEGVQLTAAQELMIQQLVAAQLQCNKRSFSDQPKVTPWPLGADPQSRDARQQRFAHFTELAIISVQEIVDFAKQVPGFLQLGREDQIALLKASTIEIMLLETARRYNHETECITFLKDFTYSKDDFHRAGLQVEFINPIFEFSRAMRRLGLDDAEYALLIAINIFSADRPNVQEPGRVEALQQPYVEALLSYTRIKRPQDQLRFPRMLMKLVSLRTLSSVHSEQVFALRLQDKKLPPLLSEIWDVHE
T1 sequence (P19793 1-462 partner): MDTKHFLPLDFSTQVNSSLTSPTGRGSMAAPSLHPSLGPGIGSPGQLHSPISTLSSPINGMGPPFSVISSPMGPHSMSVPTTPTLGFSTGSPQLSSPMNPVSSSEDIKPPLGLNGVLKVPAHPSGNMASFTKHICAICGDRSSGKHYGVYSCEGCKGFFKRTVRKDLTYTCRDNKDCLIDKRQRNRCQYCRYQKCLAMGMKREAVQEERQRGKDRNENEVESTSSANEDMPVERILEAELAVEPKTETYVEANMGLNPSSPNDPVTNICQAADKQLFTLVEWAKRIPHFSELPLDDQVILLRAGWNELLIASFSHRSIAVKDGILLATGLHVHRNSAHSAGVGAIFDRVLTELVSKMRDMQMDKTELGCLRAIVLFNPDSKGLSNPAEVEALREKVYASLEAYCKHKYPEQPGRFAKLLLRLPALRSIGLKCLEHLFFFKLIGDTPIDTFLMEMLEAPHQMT
Assay: Luciferase reporter transfection in RAW 264.7 cells, LXRβ/RXRα
Format: cell-based
Details: 2 μM
Description: We next investigated the mechanism by which LXR inhibits iNOS and COX-2 expression. […] RAW 264.7 cells were transfected with expression vectors for either LXRα/RXRα or LXRβ/RXRα along with luciferase reporter constructs. The LXR agonist inhibited expression of both iNOS and COX-2 gene promoters in a receptor-dependent fashion (FIG. 4 A and B). […] E, A dominant-negative IKK expression vector (IKK DN) blocks LXR-dependent repression of the COX-2 promoter. Transfected cells were treated with DMSO (ctrl), GW3965 (GW), LPS, or GW3965 and LPS. […] RAW 264.7 cells were transiently transfected with expression vectors for LXRα/RXRα, LXRβ/RXRα or dominant-negative I kappa B kinase (IKK) along with iNOS (A), COX-2 (B, E, F), NF-κB (C), AP-1 (D) or COX-2/NF-κB mutant (F) luciferase reporters. […] As activation of iNOS and COX-2 gene promoters by LPS is known to depend on interactions between AP-1 and NF-κB transcription factors, the effect of LXR on minimal promoters containing binding sites for these factors was evaluated. […] Moreover, the inhibitory effect of LXR on the COX-2 promoter was lost when NF-κB activity was blocked by transfection of a dominant-negative IKK or when binding sites for NF-κB were mutated (FIGS. 4E and F). These observations indicate that inhibition of inflammatory gene expression by LXR ligands involves antagonism of NF-κB signaling.
Reagents and plasmids. […] Oxysterols, LDL and ox-LDL were from Sigma and Intracell, respectively. LPS from Salmonella typhimurium was from Sigma. Expression plasmids for LXRα, LXRβ and IKK-DN (Castrillo, A. et al. 2001 J Biol Chem 276:15854-15860; Laffitte, B. A. et al. 2001 Mol Cell Biol 21:7558-7568), and reporter plasmids for NOS-2, (NFκB)3-LUC, (AP-1)4-LUC and COX-2 have been described (Callejas, N. A. et al. 2000 Gastroenterology 119:493-501).
Cell culture and transfections. Thioglycolate-elicited peritoneal macrophages were cultured in RPMI containing 10% fetal bovine serum (FBS). […] NO production was determined spectrophotometrically (Castrillo, A. et al. 2000 Mol Cell Biol 20:1692-1698).

`O=C(O)Cc1cccc(OCCCN(Cc2cccc(C(F)(F)F)c2Cl)CC(c2ccccc2)c2ccccc2)c1` [GW3965] was tested, and the “induction of the COX-2 promoter by LPS (luciferase reporter)” value was “inhibits induction”, the “induction of the iNOS promoter by LPS (luciferase reporter)” value was “inhibits induction” and the “luciferase reporter containing multiple NF-κB binding sites” value (LPS) was “inhibits expression”.
